Laboratory results as given in the NIST ThermoML archive (doi:10.1021/je8006698).
± gives the expanded uncertainty stated by the source.

Conditions: 298.15 K; 101.33 kPa; Liquid; Pycnometric method

Structure (SMILES)	mass density [kg/m3]
CCC(C)(C)OC [2-methoxy-2-methylbutane]	765.68 ± 0.69
CCCCO [butan-1-ol]	805.87 ± 0.72
CCC(C)O (stereo not drawn) [butan-2-ol]	802.73 ± 0.72
CCO [ethanol]	785.29 ± 0.71
CO [methanol]	786.64 ± 0.71
CCCO [propan-1-ol]	799.89 ± 0.72
CC(C)O [propan-2-ol]	781.34 ± 0.7
O [water]	997.17 ± 0.9
